From patent US5405847A, “4,5-dihydro-4-oxo-pyrrolo[1,2-a]quinoxalinones and corresponding aza analogs and a process for their preparation” (Asta Medica Aktiengesellschaft, priority 1992, dated 1995)
pIC50: −log10 of the molar value.

Experiments:
[1] = tested on: Ovalbumin-induced asthmatic late phase eosinophilia in the lung; assay: Ovalbumin-induced asthmatic late phase eosinophilia in the lung (guinea pigs); type: in vivo
Experimental: (§1) The acute toxicity of the compounds of the invention in the mouse (expressed by the LD 50 mg/kg; method after Miller and Tainter: Proc. Soc. Exper. Biol. a. Med. 57 (1944) 261) is for example above 1000 mg/kg in oral application. More detailed information on the previously mentioned test models. The figures cited relate to the compounds of the invention, in particular the compounds according to Example I.
1. Ovalbumin-induced asthmatic late phase eosinophilia in the lung (guinea pigs)

[2] = tested on: Asthma-induced by domestic dust mites; assay: Asthma induced by domestic dust mites (rabbits); type: in vivo; settings: 10 mg/ml as aerosol for 2 minutes
Experimental: as §1
2. Asthma-induced by domestic dust mites (rabbits)
Lit.: J. Allergy Clin. Immunol. 87, 1991, p. 312 Administration/dosage: 10 mg/ml as aerosol for 2 minutes

[3] = tested on: Allergic bronchoconstriction; assay: Allergic bronchoconstriction according to Konzett-Rossler (rat); type: in vivo; settings: iv
Experimental: as §1
3. Allergic bronchoconstriction according to Konzett-Rossler (rat)
Lit.: Naunyn-Schmiedeb. Arch. Exp. Pathol. Pharmakol. 195, 1940, p. 71-74

mast cells = assay: Allergically-induced histamine release from mast cells (rat); type: cell-based; settings: Mast cell
Experimental: as §1
1. Allergically-induced histamine release from mast cells (rat)

monocytes = assay: Lipopolysaccharide-induced interleucin-1 production of monocytes (man); type: cell-based; settings: Homo sapiens, Monocyte
Experimental: as §1
2. Lipopolysaccharide-induced interleucin-1 production of monocytes (man)

alveolar macrophages = assay: Platelet-activating factor (Paf)-induced oxygen radical release from alveolar macrophages (guinea pig); type: cell-based; settings: Cavia porcellus, Macrophage
Experimental: as §1
3. Platelet-activating factor (Paf)-induced oxygen radical release from alveolar macrophages (guinea pig)

5-Lipoxygenase = molecular target: T1, 5-Lipoxygenase (Rattus norvegicus, UniProt P12527); assay: 5-Lipoxygenase inhibition in peritoneal macrophages (rat); type: cell-based
T1 construct: endogenous in cells; host or cells: rat peritoneal macrophages
T1 sequence (P12527 1-673): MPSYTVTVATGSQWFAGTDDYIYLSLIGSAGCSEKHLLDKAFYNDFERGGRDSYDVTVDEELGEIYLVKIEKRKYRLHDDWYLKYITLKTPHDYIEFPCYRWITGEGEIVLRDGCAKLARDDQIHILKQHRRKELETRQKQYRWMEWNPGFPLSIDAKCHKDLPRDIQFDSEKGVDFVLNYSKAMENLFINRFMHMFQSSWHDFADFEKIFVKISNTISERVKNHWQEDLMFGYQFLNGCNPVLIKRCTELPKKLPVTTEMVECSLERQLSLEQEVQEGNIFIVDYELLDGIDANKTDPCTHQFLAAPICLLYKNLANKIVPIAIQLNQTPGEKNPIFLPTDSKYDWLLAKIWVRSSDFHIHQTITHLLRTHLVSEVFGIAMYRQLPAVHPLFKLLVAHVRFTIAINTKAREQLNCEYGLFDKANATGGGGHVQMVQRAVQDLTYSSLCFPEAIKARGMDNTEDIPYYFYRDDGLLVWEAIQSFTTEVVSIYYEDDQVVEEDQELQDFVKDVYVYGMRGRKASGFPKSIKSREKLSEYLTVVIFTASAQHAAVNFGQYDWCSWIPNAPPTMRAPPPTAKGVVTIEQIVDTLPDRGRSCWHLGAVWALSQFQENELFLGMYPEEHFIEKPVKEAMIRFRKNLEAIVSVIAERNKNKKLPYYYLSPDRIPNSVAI
Experimental: as §1
4. 5-Lipoxygenase inhibition in peritoneal macrophages (rat)

phosphordiesterase = phosphordiesterase inhibition; type: biochemical
Excerpt: Examples for the compounds of Formula I

Q: Which “inhibition of asthmatic late phase eosinophilia in the lung” value ([1]; 5 mg/kg/i.p.) does the source give for `O=c1[nH]c2ccc(O)nc2n2cccc12` [Example I, 4,5-Dihydro-8-hydroxy-4-oxo-pyrido[3,2-e]pyrrolo[1,2-a]pyrazine] here?
A: 67%

Q: What about the “inhibition of asthmatic late phase eosinophilia in the lung” value ([1]; 10 mg/kg/i.p.) of the same compound?
A: 98%

Q: And the “Asthmatic late phase: inhibition” value [2]?
A: 51%

Q: And the “Bronchial hyperreactivity: inhibition” value [2]?
A: 51%

Q: What about the “Bronchoconstriction: inhibition” value [2] of the same compound?
A: 49%

Q: What about the ED50 [3] of the same compound?
A: 0.5 mg/kg

Q: And the pIC50 (mast cells)?
A: 6.15

Q: And the pIC50 (monocytes)?
A: 5.35

Q: What about the pIC50 (alveolar macrophages) of the same compound?
A: 5.21

Q: And the pIC50 (5-Lipoxygenase)?
A: 4.92

Q: What about the pIC50 (phosphordiesterase) of the same compound?
A: 4.49

Q: With `CN(C(=O)CCCCOc1ccc2[nH]c(=O)c3cccn3c2n1)C1CCCCC1` [D 20169] as the compound, how does the pIC50 (phosphordiesterase) read?
A: 5.13

Q: With `CNC(=O)CCCOc1ccc2[nH]c(=O)c3cccn3c2n1` [Example 98] as the compound, how does the pIC50 (phosphordiesterase) read?
A: 4.82
